pIC50: −log10 of the molar value. Like-named read-outs stand apart in the source and are kept apart here.
Legend:
CDK2 CycE1 kinase = CDK2 CycE1 kinase (Homo sapiens (Human), UniProt P24941); test: Determination of inhibitory activity against CDK2 CycE1 kinase; assay type: biochemical
Experimental: CDK2 CycE1 kinase solution (concentration: 0.015 ng/μL) was added to assay wells at 6 μL/well, and different compounds dissolved in DMSO were added to the assay wells separately using a nanoliter pipettor, such that the final concentrations of the compounds were 300 nM to 0.07 nM. The wells were set in duplicate, and a control well was set. After incubation of the above system for 30 min, ATP (concentration: 50 μM or 5000 μM) was mixed with ULight-Myelin Basic Protein Peptide substrate (manufacturer: PerkinElmer, concentration: […]) at a ratio of 1:1, and the mixture was added to the assay wells at 4 μL/well. The resulting mixture was left to react at room temperature for 2 h, and then 5 μL of EDTA was added to terminate the reaction, followed by addition of 5 μL of a detection antibody (manufacturer: PerkinElmer, concentration: 8 nM). The mixture was incubated at room temperature for 1 h.

CDK2/CycA2 kinase = CDK2/CycA2 kinase (Homo sapiens (Human), UniProt P24941); test: Determination of inhibitory activity against CDK2/CycA2 kinase; assay type: biochemical
Experimental: The wells were set in duplicate, and a control well was set. […] The resulting mixture was left to react at room temperature for 2 h, and then 5 µL of EDTA was added to terminate the reaction, followed by addition of 5 μL of a detection antibody (manufacturer: PerkinElmer, concentration: 8 nM). The mixture was incubated at room temperature for 1 h.

[1] = read-out: CDK2/CycE1 10 μM ATP (kinase) IC50
[2] = read-out: CDK2/CycA2 10 μM ATP (kinase) IC50

| pIC50 (CDK2 CycE1 kinase; 10 μM ATP) | pIC50 (CDK2/CycA2 kinase; 10 μM ATP) | SMILES | pIC50 (CDK2 CycE1 kinase; [1]) | pIC50 (CDK2/CycA2 kinase; [2]) |
| --- | --- | --- | --- | --- |
| 7.30 to 8.00 | 7.30 to 8.00 | CC(C)NC(=O)O[C@@H]1CC[C@H](c2cc(NC3CCN(S(=O)(=O)c4cnn(C)c4)CC3)n[nH]2)C1 [Example 60] |  |  |
| > 8.00 | > 8.00 | CC(C)NC(=O)O[C@@H]1CC[C@H](c2cc(Nc3ccc(NS(C)(=O)=O)c(Cl)c3)n[nH]2)C1 [Example 40] |  |  |
| > 8.00 | > 8.00 | CC(C)NC(=O)O[C@@H]1CC[C@H](c2cc(Nc3ccc(S(C)(=N)=O)cc3)n[nH]2)C1 (stereo partly shown) [Example 61] |  |  |
| > 8.00 | > 8.00 | CC(C)NC(=O)O[C@@H]1CC[C@H](c2cc(Nc3ccc(S(N)(=O)=O)cc3F)n[nH]2)C1 [Example 25] |  |  |
| > 8.00 | > 8.00 | CC(C)NC(=O)O[C@@H]1CC[C@H](c2cc(Nc3ccc(NS(C)(=O)=O)c(F)n3)n[nH]2)C1 [Example 24] |  |  |
| > 8.00 | > 8.00 | CC(C)NC(=O)O[C@H]1CC[C@@H](c2cc(Nc3ccc(S(N)(=O)=O)cc3F)n[nH]2)C1 [Example 34] |  |  |
| > 8.00 | > 8.00 | CC(C)NC(=O)O[C@@H]1CC[C@H](c2cc(Nc3ccc(S(=N)(=O)C4CC4)cc3)n[nH]2)C1 (stereo partly shown) [Example 62] |  |  |
| > 8.00 | > 8.00 | CC(C)NC(=O)O[C@@H]1CC[C@H](c2cc(Nc3ccc(N4CCCS4(=O)=O)cn3)n[nH]2)C1 [Example 28] |  |  |
| > 8.00 | > 8.00 | CC(C)NC(=O)O[C@@H]1CC[C@H](c2cc(Nc3ccc(NS(C)(=O)=O)nc3)n[nH]2)C1 [Example 15] |  |  |
| > 8.00 | > 8.00 | CC(C)NC(=O)O[C@@H]1CC[C@H](c2cc(Nc3ccc(NS(C)(=O)=O)cc3)n[nH]2)C1 [Example 7] |  |  |
| > 8.00 | > 8.00 | CC(C)NC(=O)O[C@@H]1CC[C@H](c2cc(Nc3ccc(S(C)(=O)=O)cc3)n[nH]2)C1 [Example 54] |  |  |
| > 8.00 | 7.30 to 8.00 | CC(C)NC(=O)O[C@@H]1CC[C@H](c2cc(Nc3ccc4c(c3)CCN4S(C)(=O)=O)n[nH]2)C1 [Example 51] |  |  |
| > 8.00 | > 8.00 | CC(C)NC(=O)O[C@@H]1CC[C@H](c2cc(Nc3ccc(S(=O)(=O)NC4CC4)cn3)n[nH]2)C1 [Example 68] |  |  |
| > 8.00 | > 8.00 | CNS(=O)(=O)c1ccc(Nc2cc(C3CCC(OC(=O)NC(C)C)C3)[nH]n2)c(F)c1 (stereo not shown) [Example 16] |  |  |
| > 8.00 | > 8.00 | CC(C)NC(=O)O[C@@H]1CC[C@H](c2cc(Nc3ccc(NS(C)(=O)=O)c(F)c3)n[nH]2)C1 [Example 23] |  |  |
| > 8.00 | > 8.00 | COc1cc(Nc2cc([C@H]3CC[C@@H](OC(=O)NC(C)C)C3)[nH]n2)ccc1NS(C)(=O)=O [Example 55] |  |  |
| > 8.00 | > 8.00 | CC(C)NC(=O)O[C@@H]1CC[C@H](c2cc(Nc3ccc(NS(C)(=O)=O)cn3)n[nH]2)C1 [Example 1] |  |  |
| > 8.00 | > 8.00 | CC(C)NC(=O)O[C@@H]1CC[C@H](c2cc(Nc3ccc(NS(=O)(=O)C4CC4)cn3)n[nH]2)C1 [Example 8] |  |  |

The next lines start with the compound.

| SMILES | pIC50 (CDK2 CycE1 kinase; 10 μM ATP) | pIC50 (CDK2/CycA2 kinase; 10 μM ATP) | pIC50 (CDK2 CycE1 kinase; [1]) | pIC50 (CDK2/CycA2 kinase; [2]) |
| --- | --- | --- | --- | --- |
| CC(C)NC(=O)O[C@@H]1CC[C@H](c2cc(Nc3cc(F)c(NS(C)(=O)=O)cc3F)n[nH]2)C1 [Example 32] | > 8.00 | > 8.00 |  |  |
| O=C(NC1CC1)O[C@@H]1CC[C@H](c2cc(Nc3ccc4c(c3)CS(=O)(=O)C4)n[nH]2)C1 [Example 67] | > 8.00 | > 8.00 |  |  |
| CC1(NC(=O)O[C@@H]2CC[C@H](c3cc(Nc4ccc5c(c4)CS(=O)(=O)C5)n[nH]3)C2)CC1 [Example 48] | > 8.00 | > 8.00 |  |  |
| CC(C)NC(=O)O[C@@H]1CC[C@H](c2cc(Nc3ccc(NS(C)(=O)=O)cc3F)n[nH]2)C1 [Example 3] | > 8.00 | > 8.00 |  |  |
| CC(C)NC(=O)O[C@@H]1CC[C@H](c2cc(Nc3ccc(S(C)(=N)=O)c(Cl)c3)n[nH]2)C1 (stereo partly shown) [Example 73] |  |  | > 8.00 | > 8.00 |
| COCc1ccc(Nc2cc(C3CCC(OC(=O)NC(C)C)C3)[nH]n2)nc1 (stereo not shown) [Example 18] | 7.30 to 8.00 | 7.30 to 8.00 |  |  |
| CC(C)NC(=O)O[C@@H]1CC[C@H](c2cc(Nc3ccc(NS(C)(=O)=O)c(C(F)(F)F)n3)n[nH]2)C1 [Example 11] | > 8.00 | > 8.00 |  |  |
| CC(C)NC(=O)O[C@@H]1CC[C@H](c2cc(Nc3ccc4c(c3)CS(=O)(=O)N4)n[nH]2)C1 [Example 43] |  |  | > 8.00 | > 8.00 |
| COCCNc1ccc(Nc2cc(C3CCC(OC(=O)NC(C)C)C3)[nH]n2)nc1 (stereo not shown) [Example 20] | 7.30 to 8.00 | 7.30 to 8.00 |  |  |
| CC(C)NC(=O)O[C@@H]1CC[C@H](c2cc(Nc3ccc(NS(C)(=O)=O)c(OC(F)(F)F)c3)n[nH]2)C1 [Example 47] | > 8.00 | > 8.00 |  |  |
| CC(C)NC(=O)O[C@@H]1CC[C@H](c2cc(Nc3ccc(P(C)(C)=O)cc3)n[nH]2)C1 [Example 41] | 7.30 to 8.00 | 7.30 to 8.00 |  |  |
| CC(C)NC(=O)O[C@@H]1CC[C@H](c2cc(Nc3ccc(NS(C)(=O)=O)c(F)c3F)n[nH]2)C1 [Example 37] | > 8.00 | > 8.00 |  |  |
| CC(C)NC(=O)O[C@@H]1CC[C@H](c2cc(Nc3ccc(NC=O)cn3)n[nH]2)C1 [Example 5] | > 8.00 | > 8.00 |  |  |
| CC(C)NC(=O)O[C@@H]1CC[C@H](c2cc(Nc3ccc(S(N)(=O)=O)c(F)c3)n[nH]2)C1 [Example 33] | > 8.00 | > 8.00 |  |  |
| [2H]C([2H])([2H])C([2H])(NC(=O)O[C@@H]1CC[C@H](c2cc(Nc3ccc(S(N)(=O)=O)c(Cl)n3)n[nH]2)C1)C([2H])([2H])[2H] [Example 77] | > 8.00 | > 8.00 |  |  |
| CC(C)NC(=O)O[C@@H]1CC[C@H](c2cc(Nc3ccc(NS(C)(=O)=O)c(C(F)F)c3)n[nH]2)C1 [Example 74] |  |  | > 8.00 | > 8.00 |
| COc1ccc(Nc2cc([C@H]3CC[C@@H](OC(=O)NC(C)C)C3)[nH]n2)nc1 [Example 9] | > 8.00 | 7.30 to 8.00 |  |  |
| CC(C)NC(=O)O[C@@H]1CC[C@H](c2cc(Nc3ccc(CN(C)C)cc3F)n[nH]2)C1 [Example 10] | > 8.00 | 7.30 to 8.00 |  |  |
| CC(C)NC(=O)O[C@@H]1CC[C@H](c2cc(Nc3ccc(C(N)=O)cc3)n[nH]2)C1 [Example 46] | > 8.00 | > 8.00 |  |  |
| CC(C)NC(=O)O[C@@H]1CC[C@H](c2cc(Nc3ccc(S(C)(=N)=O)c(F)c3)n[nH]2)C1 (stereo partly shown) [Example 70] |  |  | > 8.00 | > 8.00 |
| CC(C)NC(=O)O[C@@H]1CC[C@H](c2cc(Nc3ccc(NS(C)(=O)=O)c(OC(F)(F)F)n3)n[nH]2)C1 [Example 29] | > 8.00 | > 8.00 |  |  |
| CNC(=O)O[C@@H]1CC[C@H](c2cc(Nc3ccc4c(c3)CS(=O)(=O)C4)n[nH]2)C1 [Example 53] | > 8.00 | > 8.00 |  |  |
| CC(C)NC(=O)O[C@@H]1CC[C@H](c2cc(Nc3ccc(NS(C)(=O)=O)c(C(F)(F)F)c3)n[nH]2)C1 [Example 27] | > 8.00 | > 8.00 |  |  |
| C[C@@H](NC(=O)O[C@@H]1CC[C@H](c2cc(Nc3ccc4c(c3)CS(=O)(=O)C4)n[nH]2)C1)C(F)(F)F [Example 64] |  |  | > 8.00 | > 8.00 |
| CC(C)NC(=O)O[C@@H]1CC[C@H](c2cc(Nc3ccc4c(c3)CNS4(=O)=O)n[nH]2)C1 [Example 56] | > 8.00 | > 8.00 |  |  |
| CC(C)NC(=O)O[C@@H]1CC[C@H](c2cc(Nc3ccc(NS(C)(=O)=O)c(OC(F)F)c3)n[nH]2)C1 [Example 71] |  |  | > 8.00 | > 8.00 |

Source: patent US20250084067A1, “PYRAZOLE-SUBSTITUTED CYCLOPENTANOL ESTER DERIVATIVE AND USE THEREOF” (CHIA TAI TIANQING PHARMACEUTICAL GROUP CO., LTD., priority 2022, published 2025)
